Drawing on patent US11485714B2, “Hydroxyethylamine-based piperazine compounds, and methods of producing and using the same for treating disease” (National Institute of Immunology, priority 2020, dated 2022), this text covers IC50 for two compounds.

The term IC50 denotes the point on the concentration scale where inhibition reaches its midpoint.

Common to all, as to format: cell-based
Assay [1] concerns P. falciparum CQ-sensitive (Pf3D7). The assay can be described thus: SYBR Green I assay, asynchronous cultures, CQ-sensitive clone. As to conditions: Plasmodium falciparum, read-out: Pf3D7 IC50, nM (±SD). Here is the method: Initially, antimalarial activity of Compound I was assessed on asynchronous cultures of P. falciparum sensitive (Pf3D7) clone using the SYBR Green assay. […] DMSO was used as a vehicle control, CQ (Chloroquine), DOX (Doxycycline) and DHA (Dihydroartemisinin).

Assay [2] relates to P. falciparum CQ-resistant (PfDd2). The assay can be described thus: SYBR Green I assay, asynchronous cultures, CQ-resistant clone. The settings on record: Plasmodium falciparum, read-out: PfDd2 IC50, nM (±SD).
The subject of assay [3] is Field isolates from Kenya (P. falciparum infected blood). The assay can be described thus: Screening against freshly collected field isolates. As to conditions: Plasmodium falciparum, read-out: Field isolates from Kenya IC50, nM (±SD).
Where [4] appears, read: asynchronous cultures, 37° C., 72 hours, SYBR Green I.

Molecules are shown by their SMILES. Where two headings read alike, the source gives them in different places.

As for `CCN(CC)CCCC(C)Nc1ccnc2cc(Cl)ccc12` (stereo not drawn) [Chloroquine, reference compound], the IC50 came to 32.3 nM in assay [1] (72 h), 137 nM in assay [2] (72 h) and 75.2 nM in assay [3].
With `C[C@H]1[C@@H](O)O[C@@H]2O[C@@]3(C)CC[C@H]4[C@H](C)CC[C@@H]1[C@@]24OO3` [Dihydroartemisinin, reference compound], the IC50 in assay [1] (setting [4]) was 27 nM; in assay [2] (setting [4]) it was 46 nM; in assay [3] (Table 1), 7.37 nM.
